Source: PubChem BioAssay (NCI)
Where “and” joins values, the source holds several entries; their conditions need not be identical. Identical values can stand only once.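 Five concentrations, 48 hours, 96-well plates. Here, GI50 denotes the concentration required for 50% inhibition of growth. TGI is the concentration that stops growth completely.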

Experiments:
Assay in all cases: NCI anticancer screen, dose series, 48 h
A549 NSCLC = test system: A549 NSCLC
CCRF-CEM leukemia = test system: CCRF-CEM leukemia
COLO 205 colon = test system: COLO 205 colon
HCT-15 colon = test system: HCT-15 colon
HOP-62 NSCLC = test system: HOP-62 NSCLC
HOP-92 NSCLC = test system: HOP-92 NSCLC
IGROV1 ovarian = test system: IGROV1 ovarian
MOLT-4 leukemia = test system: MOLT-4 leukemia
NCI-H226 lung = test system: NCI-H226 lung
SF-539 CNS = test system: SF-539 CNS

Structure (SMILES) | GI50 (A549 NSCLC) | TGI (A549 NSCLC) | TGI (CCRF-CEM leukemia) | GI50 (COLO 205 colon) | TGI (COLO 205 colon) | GI50 (HCT-15 colon) | GI50 (HOP-62 NSCLC) | TGI (HOP-62 NSCLC) | TGI (HOP-92 NSCLC) | GI50 (IGROV1 ovarian) | TGI (IGROV1 ovarian) | GI50 (MOLT-4 leukemia) | TGI (MOLT-4 leukemia) | TGI (NCI-H226 lung) | GI50 (SF-539 CNS) | TGI (SF-539 CNS) | TGI (HCT-15 colon) | GI50 (CCRF-CEM leukemia) | GI50 (HOP-92 NSCLC) | GI50 (NCI-H226 lung)
COc1cc2c(c(OC)c1OC)-c1ccc(OC)c(=O)cc1[C@@H](NC(=O)c1ccccc1)CC2 | < 0.003 µM | 30 µM and > 100 µM | > 100 µM | 0.00399 µM | 0.0153 µM and 0.0138 µM | 0.0444 µM | < 0.003 µM | 30 µM and > 100 µM | 6.68 µM | 0.00587 µM | 30 µM and 55.2 µM | < 0.003 µM | 30 µM and > 73.2 µM | 1.89 µM | < 0.003 µM | < 0.003 µM and 0.017 µM |  |  |  | 
COC1=C(C)C(=O)c2c(c(COC(N)=O)c3n2CC2C3N2C)C1=O (configuration not stated) |  | 0.0645 µM | 0.105 µM |  | 0.119 µM |  |  | 0.074 µM | 0.453 µM |  | 0.351 µM |  | 0.104 µM | 0.337 µM |  | 0.12 µM | 0.0719 µM |  |  | 
CCOc1ccccc1NC(=O)CC(C(=O)OC)C(=O)C(=O)OC (configuration not stated) |  | > 100 µM | > 100 µM |  | > 100 µM |  |  | > 100 µM | > 100 µM |  | > 100 µM |  | > 100 µM | > 100 µM |  | > 100 µM | > 100 µM |  |  | 
COc1ccccc1CNCCCN1C(=O)c2ccc3c4c(ccc(c24)C1=O)C(=O)N(CCCOCCCCOCCCN)C3=O | 1.22 µM | 2.82 µM | 3.54 µM | 0.233 µM | 0.454 µM | 0.888 µM | 1.32 µM | 2.73 µM | 4.61 µM | 1.25 µM | 3.67 µM | 0.538 µM | 2.55 µM | 3.02 µM | 1.68 µM | 3.3 µM | 3.3 µM | 0.559 µM | 2.1 µM | 1.56 µM
N#C/C(=C1C=C(Br)/C(=N\O)C=C\1Cl)c1cccc2ccccc12 |  | 26 µM | 13.9 µM |  | 5.86 µM |  |  | 26.4 µM | 21.9 µM |  | > 100 µM |  | 17.6 µM | 6.54 µM |  | 4.52 µM | 25.6 µM |  |  | 
COC(=O)C1=C(C)N(NC(=O)OC(C)(C)C)C(=O)C1=P(c1ccccc1)(c1ccccc1)c1ccccc1 |  | > 100 µM | > 100 µM |  | > 100 µM |  |  | > 100 µM | > 100 µM |  | > 100 µM |  | > 100 µM | > 100 µM |  | > 100 µM | > 100 µM |  |  | 
Cc1cn(C2CC(O)C(CO)O2)c(=O)n2nnnc12 (configuration not stated) |  | > 100 µM | > 100 µM |  | > 100 µM |  |  | > 100 µM | > 100 µM |  | > 100 µM |  | > 100 µM | > 100 µM |  | > 100 µM | > 100 µM |  |  | 
COc1ccc(Nc2c3ccccc3nc3occc23)cc1 | 3.26 µM | 41.6 µM | > 24.7 µM | 2 µM |  | 0.336 µM | 5.42 µM | 30.1 µM | 31.5 µM | 7.66 µM | > 100 µM | 1.55 µM | > 33 µM | > 100 µM | 2.84 µM | 20.8 µM | 14.1 µM | 1.27 µM | 7.36 µM | 31.9 µM
CN1C/C=C\CCOc2cccc(c2)-c2ccnc(n2)Nc2cccc(c2)C1 | 0.0469 µM | 0.8 µM | 1.04 µM | 0.024 µM | 0.0762 µM | 0.0435 µM | 0.0482 µM | 0.402 µM | 0.227 µM | 0.0487 µM | 1.31 µM | 0.0371 µM | 0.874 µM | 1.3 µM | 0.0508 µM | 0.227 µM | 1.96 µM | 0.0349 µM | 0.0349 µM | 0.0692 µM
c1ccc2c(c1)ccn2CCc1c[nH]c2ccccc12 |  | > 10 µM | > 10 µM |  | > 10 µM |  |  | > 10 µM | > 10 µM |  | > 10 µM |  | > 10 µM | > 10 µM |  | > 10 µM | > 10 µM |  |  | 
COc1cc2c3c(n(CCCNC(=O)OCC4c5ccccc5-c5ccccc54)c(=O)c2cc1OC)-c1cc2c(cc1/C3=C\CCNC(=O)OCC1c3ccccc3-c3ccccc31)OCO2 | > 26.6 µM | > 50 µM | > 50 µM | > 28 µM | > 50 µM | > 50 µM |  | > 24.3 µM | > 50 µM | 0.915 µM | 4.93 µM | 5.45 µM | > 50 µM | > 50 µM | 35.7 µM | > 50 µM | > 50 µM | 1.42 µM | > 40.7 µM | > 50 µM
COC(=O)[C@@H](C)CNS(=O)(=O)N(c1cc(C(F)(F)F)cc(C(F)(F)F)c1)C1CCN(Cc2ccc(F)cc2)CC1 | 14 µM | 31 µM | 30.7 µM | 1.88 µM | 3.59 µM | 4.42 µM | 15 µM | 29 µM | 20 µM | 18.8 µM | 44.9 µM | 11.5 µM | 27.4 µM | 30.2 µM | 13.2 µM | 26.4 µM | 17.9 µM | 12.8 µM | 5.76 µM | 13.2 µM
CCOC(=O)[C@@H](N)CCC(=O)N[C@@H](CSCc1ccccc1)C(=O)N[C@@H](C(=O)OCC)c1ccccc1 | > 73.2 µM | > 100 µM | > 67.7 µM | 17.4 µM | 34.2 µM | 33.7 µM | 16.6 µM | 32.8 µM | 24.2 µM | 19.3 µM | 36.4 µM | 24.8 µM | > 71.4 µM | 37.5 µM | 17.6 µM | 33.8 µM | > 71.2 µM | 21.8 µM | 10.9 µM | 16.4 µM
CN(C)C(=O)c1cc2cnc(Nc3ccc(-c4csc5c(=S)cc(N6CCOCC6)oc45)cc3)nc2n1C1CCCC1 | 0.823 µM | 5.15 µM | > 9.84 µM | 0.214 µM |  | 0.344 µM | 0.694 µM | > 50 µM |  | 0.509 µM | > 50 µM | 0.244 µM | > 50 µM | > 11.9 µM | 0.517 µM | 2.03 µM | > 50 µM | 0.274 µM | 0.115 µM | 0.405 µM
N#CC(NNC(=O)Cc1ccccc1)c1c(O)ccc2ccccc12 (configuration not stated) |  | 44.1 µM | 26.9 µM |  | > 80.5 µM |  |  | 59.2 µM | 41.3 µM |  | > 76.8 µM |  | > 48.3 µM | 47.3 µM |  | 29 µM | > 100 µM |  |  | 
Cn1c2c(c3ccccc31)CC1c3c(c4ccccc4n3C)CC21 (configuration not stated) |  | > 100 µM | > 100 µM |  | > 100 µM |  |  | > 100 µM | > 100 µM |  | > 100 µM |  | > 100 µM | > 100 µM |  | > 100 µM | > 100 µM |  |  | 
